Laboratory results as given in paper PMC6155021, “Ancient and modern anticonvulsants act synergistically in a KCNQ potassium channel binding pocket” (Nature Communications, 2018).

Biological target: KCNQ2/3 channels (Homo sapiens, UniProt O43525+O43526)
Experiment: Two-electrode voltage-clamp of KCNQ2/3 channels expressed in Xenopus laevis oocytes
Format: cell-based
Settings: for Non-normalized tail current V0.5 / Normalized tail current V0.5 / Slope: KCNQ2/3; for effect on voltage dependence of KCNQ2/3 activation (initial screen): tail currents at −30 mV
Description: cRNA transcripts encoding human KCNA1, KCNQ1, KCNQ2, KCNQ3, KCNQ4, or KCNQ5 were generated by in vitro transcription using the T7 polymerase message machine kit (Thermo Fisher Scientific), after vector linearization, from cDNA sub-cloned into plasmids incorporating X. laevis β-globin 5′ and 3′ UTRs flanking the coding region to enhance translation and cRNA stability. cRNA was quantified by spectrophotometry. Mutant cDNAs were generated by site-directed mutagenesis using a QuikChange kit according to manufacturer’s protocol (Stratagene, San Diego, CA) and corresponding cRNAs prepared as above. Defolliculated stage V and VI X. laevis oocytes (Ecocyte Bioscience, Austin, TX) were injected with Kv channel α subunit cRNAs (10 ng total per oocyte). Oocytes were incubated at 16 °C in Barth’s saline solution (Ecocyte) containing penicillin and streptomycin, with daily washing, for 3–5 days prior to two-electrode voltage-clamp (TEVC) recording.
Oocytes were placed in a small-volume oocyte bath (Warner) and viewed with a dissection microscope. Chemicals were sourced from Sigma. Bath solution was (in mM): 96 NaCl, 4 KCl, 1 MgCl2, 1 CaCl2, 10 HEPES (pH 7.6). […] MTX (DMSO), sorbic acid (ethanol), and glutaconic acid (molecular grade H2O) were stored at −20 °C as 1 M stocks. Oleamide was stored as a 1 mM stock in ethanol at 4 °C. Palmitic acid was conjugated with bovine serum albumin as a 1 mM stock and stored at −20 °C. All compounds were diluted to working concentrations each experimental day. All compounds were introduced to the recording bath via gravity perfusion at a constant flow of 1 ml/min for 3 min prior to recording. Pipettes were of 1–2 MΩ resistance when filled with 3 M KCl. Currents were recorded in response to pulses between −80 and +40 mV at 20 mV intervals, or a single pulse to +40 mV, from a holding potential of −80 mV, to yield current–voltage relationships, current magnitude, and for quantifying activation rate. TEVC data analysis was performed with Clampfit10.2 (Molecular Devices) and Graphpad Prism software (GraphPad, San Diego, CA, USA); values are stated as mean ± SEM. Normalized tail currents were plotted versus prepulse voltage and fitted with a single Boltzmann function:1 g=A1-A2/1+expV12-Vy+A2, where g is the normalized tail conductance, A1 is the initial value at −∞, A2 is the final value at +∞, V1/2 is the half-maximal voltage of activation, and Vs the slope factor. Activation and deactivation kinetics were fitted with single-exponential functions.

| Compound | Non-normalized tail current V0.5 (100 µM) | Normalized tail current V0.5 (100 µM) | Slope (100 µM) | Non-normalized tail current V0.5 (0.1 µM) | Normalized tail current V0.5 (0.1 µM) | Slope (0.1 µM) | Non-normalized tail current V0.5 (1 µM) | Normalized tail current V0.5 (1 µM) | Slope (1 µM) | Non-normalized tail current V0.5 (10 µM) | Normalized tail current V0.5 (10 µM) | Slope (10 µM) | other results |
| --- | --- | --- | --- | --- | --- | --- | --- | --- | --- | --- | --- | --- | --- |
| C=CCCCCC [1-Heptene] | -41.9 ± 4.9 mV | -41.8 ± 0.9 mV | 5.8 ± 1.5 mV |  |  |  |  |  |  |  |  |  |  |
| CCC1=C(O)C(=O)CC1 [3-ethyl-2-hydroxy-2-cyclopenten-1-one] | -40.1 ± 1.9 mV | -41.0 ± 0.9 mV | 5.1 ± 0.9 mV |  |  |  |  |  |  |  |  |  |  |
| O=C1c2ccccc2C(Cc2ccncc2)(Cc2ccncc2)c2ccccc21 [XE991, reference compound] |  |  |  |  |  |  |  |  |  |  |  |  | effect on MTX-activated KCNQ2/3 current (wash-in of MTX followed by XE991, −60 mV): rapidly inhibited |

Second part, led by results:

| Non-normalized tail current V0.5 (100 µM) | Normalized tail current V0.5 (100 µM) | Slope (100 µM) | Non-normalized tail current V0.5 (0.1 µM) | Normalized tail current V0.5 (0.1 µM) | Slope (0.1 µM) | Non-normalized tail current V0.5 (1 µM) | Normalized tail current V0.5 (1 µM) | Slope (1 µM) | Non-normalized tail current V0.5 (10 µM) | Normalized tail current V0.5 (10 µM) | Slope (10 µM) | Compound | other results |
| --- | --- | --- | --- | --- | --- | --- | --- | --- | --- | --- | --- | --- | --- |
| -40.8 ± 3.8 mV | -40.7 ± 1.2 mV | 5.4 ± 1.7 mV | -40.4 ± 1.5 mV | -41.2 ± 1.4 mV | 4.4 ± 3.7 mV | -41.5 ± 1.3 mV | -42.7 ± 1.7 mV | 4.8 ± 2.4 mV | -42.1 ± 3.8 mV | -42.9 ± 2.2 mV | 5.4 ± 2.3 mV | O=C(O)/C=C/CC(=O)O [Glutaconic Acid, glutaconic acid] | effect on voltage dependence of KCNQ2/3 activation (initial screen) (100 µM): negative-shifted; Non-normalized tail current V0.5 (500 µM): -38.5 ± 5.4 mV; Normalized tail current V0.5 (500 µM): -37.7 ± 0.9 mV; Slope (500 µM): 6.8 ± 0.9 mV |
| -41.9 ± 3.5 mV | -41.5 ± 0.8 mV | 6.6 ± 0.8 mV | -41.9 ± 4.8 mV | -41.8 ± 0.6 mV | 6.5 ± 0.9 mV | -41.6 ± 4.3 mV | -41.5 ± 0.8 mV | 6.7 ± 1.1 mV | -39.4 ± 4.8 mV | -39.2 ± 0.8 mV | 7.0 ± 0.8 mV | CCCCCCCC/C=C\CCCCCCCC(N)=O [Oleamide, oleamide] | Non-normalized tail current V0.5 (500 µM): -37.6 ± 2.1 mV; Normalized tail current V0.5 (500 µM): -37.9 ± 0.8 mV; Slope (500 µM): 6.7 ± 0.6 mV |
|  |  |  | -43.6 ± 5.0 mV | -44.3 ± 1.7 mV | 7.9 ± 1.7 mV | -45.6 ± 5.5 mV | -46.6 ± 1.7 mV | 7.4 ± 1.7 mV | -43.1 ± 4.9 mV | -44.9 ± 0.9 mV | 6.8 ± 0.9 mV | CCCCCCCCCCCCCCCC(=O)O [Palmitic Acid, palmitic acid] | effect on voltage dependence of KCNQ2/3 activation (initial screen) (30 µM): negative-shifted; Non-normalized tail current V0.5 (3 µM): -45.1 ± 5.4 mV; Normalized tail current V0.5 (3 µM): -46.5 ± 1.1 mV; Slope (3 µM): 7.1 ± 1.1 mV; Non-normalized tail current V0.5 (30 µM): -43.5 ± 4.9 mV; Normalized tail current V0.5 (30 µM): -44.3 ± 1.4 mV; Slope (30 µM): 7.0 ± 1.1 mV |
| -39.9 ± 3.0 mV | -39.9 ± 0.9 mV | 4.2 ± 0.9 mV |  |  |  |  |  |  |  |  |  | C/C=C/C=C/C(=O)O [Sorbic Acid, sorbic acid] |  |
